15 compounds from PubChem BioAssay (NCI) can be followed below.

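1) Cells in 96-well plates. 2) Compound, 48 h, 5 concentrations. 3) Linear interpolation between surrounding doses. 4) Unreached endpoint = highest concentration. TGI denotes the concentration required for complete inhibition of growth.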 Where a SMILES comes first, the peptide text is derived from it. [ ]: non-standard residue; d: D form. The star is where a group is joined. ξ: configuration not given here. ξPhe(4-NO2) = NC(Cc1ccc([N+](=O)[O-])cc1)C(=O)O; Boc = CC(C)(C)OC(=O)*; OBn = c1ccc(CO*)cc1

Holding throughout (assay): NCI anticancer screen, dose series, 48 h
Assay [1] deals with 786-0 renal.
Assay [2] relates to A498 renal.
The subject of assay [3] is MDA-MB-435.
The test system of assay [4] is NCI-H522 lung.
The test system of assay [5] is OVCAR-4 ovarian.
Assay [6] has as its system RPMI-8226 leukemia.
Assay [7] deals with SF-295 CNS.
In assay [8] the test system is SF-539 CNS.
For assay [9], the system named is SNB-75 CNS.
The test system of assay [10] is T-47D breast.

For `O=c1oc2ccccc2cc1-c1nnc(-c2ccccc2)s1`, the TGI is above 66.6 µM in assay [1]; 43.6 µM in assay [2]; 12.9 µM in assay [3]; above 100 µM in [4]; above 100 µM in assay [5]; above 100 µM in assay [6]. In addition, the TGI in [7] was above 71 µM; in assay [8], above 41.8 µM; in assay [9] it was 45.6 µM; in assay [10], above 85.2 µM.
Consider `CC(=O)OCC1OC(n2c3c(c(-c4ccc(Cl)cc4)c(C#N)c2=S)C(=O)CC(C)(C)C3)C(OC(C)=O)C(OC(C)=O)C1OC(C)=O` (stereo unspecified), for which the TGI in [1] was above 88.7 µM; in assay [2] it was 87.9 µM; in assay [3], above 69.6 µM; in assay [4] it was above 58.1 µM; in assay [5], above 100 µM; in [6], above 100 µM. Moreover, the TGI in assay [7] is above 100 µM; in assay [8] it was above 68.7 µM; in assay [9] it was 44.3 µM; in [10] it was above 27.7 µM.
Turning to `CC(C)(C)OC(=O)NC(Cc1ccc([N+](=O)[O-])cc1)C(=O)NCC(=O)OCc1ccccc1` (stereo unspecified) (Boc-[ξPhe(4-NO2)]-Gly-OBn), the TGI in [1] was 33.8 µM; in [2] it was above 100 µM; in [3] it was 33.2 µM; in [4] it was 53 µM; in assay [5] it was above 100 µM; in assay [6] it was 45.9 µM. Besides, the TGI is 40.2 µM in [7], 41.5 µM in [9] and above 100 µM in assay [10].
For `C[C@]12CC(c3ccccc3O1)C(C#N)C(=O)N2` (stereo partly specified), the TGI in assay [1], in assay [2], in assay [3], in [5], in assay [6] and in [9] was above 100 µM each time. In addition, the TGI in assay [10] is above 100 µM.
Consider `CCOc1ccc(N/C(=C(/C(Cl)=C(/Cl)NCCO)[N+](=O)[O-])n2nnc3ccccc32)cc1`, for which the TGI was 81.7 µM in [1]; above 100 µM in assay [2]; 35.1 µM in assay [3]; above 100 µM in assay [5]; above 100 µM in assay [6]; above 100 µM in assay [7]. The results for the TGI in assay [8], in assay [9] and in assay [10] were 93 µM, above 100 µM and 37.6 µM, respectively.
In the case of `CC1(C)[C@@H]2C[C@H]1C(Cc1ccc(C[C@H]3c4cc(-c5ccccn5)ncc4[C@H]4C[C@@H]3C4(C)C)cc1)c1cc(-c3ccccn3)ncc12` (stereo partly specified), the TGI was 14.7 µM in [1]; 7.99 µM in assay [2]; 23.3 µM in assay [3]; above 100 µM in assay [4]; 70 µM in assay [6]; above 100 µM in [7]. Further, the results for the TGI in assay [8], in assay [9] and in assay [10] were 7.13 µM, above 100 µM and above 100 µM, respectively.
For `Cc1ccc(S(=O)(=O)[N-]C2C(=O)c3ccccc3C(=O)C2[n+]2cccc(C(N)=O)c2)cc1` (stereo unspecified), the TGI in [1], in [3], in [4], in assay [5], in assay [6] and in [7] was above 100 µM each time. For the same compound, the TGI in [8], in assay [9] and in [10] was above 100 µM in each case.
On to `CCOC(=O)c1cc(C2CCN(CC(C)CC)C2=S)c(C(=O)/C=C(/C)N)[nH]1` (stereo unspecified), for which the TGI in [1], in assay [2], in assay [3], in assay [6], in [7] and in assay [8] was above 50 µM throughout. The TGI in assay [9] and in [10] was above 50 µM in each case.
For the compound `CC(C)C[C@H](NC(=O)CCc1ccccc1)B(O)O`, the TGI in assay [1] is 57.5 µM; in assay [2], 14 µM; in assay [3], 7.79 µM; in [4], 31.1 µM; in assay [5], above 100 µM; in assay [6], 6.11 µM. Also, the TGI in assay [7] worked out at 34.5 µM; in assay [8], 15.4 µM; in assay [10] it was 43.9 µM.
Consider `COc1ccc(-n2c3c(c4cc(O)ccc42)C(=O)c2ccccc2C3=O)cc1`, for which the TGI in assay [1] is 11.5 µM; in [2] it was 22.5 µM; in [3] it was above 100 µM; in [4], above 100 µM; in [5], above 100 µM; in [6] it was above 100 µM. Also, the TGI was 17.6 µM in [7], 11.5 µM in assay [8] and above 100 µM in assay [10].
On to `O=C1Nc2ccccc2[C@]12C[C@H]2c1ccccn1`, for which the TGI in [1], in assay [2], in assay [3], in [4], in assay [5] and in assay [6] was above 100 µM each time. The TGI in assay [7], in assay [8] and in [10] was above 100 µM throughout.
Turning to `COc1ccc(C2SC(N)=Nc3c2c(C)nn3C(=O)c2ccc(Cl)cc2)cc1` (stereo unspecified), the TGI in [1], in [3], in assay [4], in assay [5], in [6] and in assay [7] was above 10 µM each time. Besides, the TGI in [8], in [9] and in [10] was above 10 µM each time.
As for `CCCC(=O)N/S(=N/S(=O)(=O)c1ccc(Cl)cc1)C(Cl)(Cl)Cl` (stereo unspecified), the TGI in assay [1], in assay [2], in assay [3], in assay [7], in [8] and in assay [10] was above 100 µM in each case.
As to `Nc1nc(Cl)cc(NCC2(CO)CCC2)n1`, the TGI in [1], in assay [3], in assay [4], in [5], in assay [6] and in assay [7] was above 100 µM in each case. In addition, the TGI in [8], in assay [9] and in [10] was above 100 µM each time.
As for `CC(=N/NC(=S)Nc1c(C)n(C)n(-c2ccccc2)c1=O)/C(C)=N\NC(=S)Nc1c(C)n(C)n(-c2ccccc2)c1=O`, the TGI in assay [1], in assay [2], in assay [3], in assay [4], in assay [5] and in [7] was above 100 µM each time. For the same compound, the TGI in assay [8], in assay [9] and in [10] was above 100 µM throughout.
